In brackets after ≈: the same amount, converted by molar mass. Activity calls are given as the source filed them. The calls are words filed in the database; no cut-off is given here.
Experiments:
[1] = tested on: Rhodotorula glutinis; test: Antifungal activity against Rhodotorula glutinis assessed as growth inhibition at 50 ug/ml after 24 to 72 hr by broth dilution method; format: functional, organism-based
[2] = tested on: Meyerozyma guilliermondii; test: Antifungal activity against Meyerozyma guilliermondii assessed as growth inhibition at 50 ug/ml after 24 to 72 hr by broth dilution method; format: functional, organism-based
[3] = tested on: Botrytis cinerea; test: Antifungal activity against Botryotinia fuckeliana ITEM-966 after 72 hr by broth dilution method; format: functional; details: ITEM-966, 72 h
[4] = tested on: Botrytis cinerea; test: Antifungal activity against Botryotinia fuckeliana ITEM-966 after 48 hr by broth dilution method; format: functional; details: ITEM-966, 48 h
[5] = tested on: Botrytis cinerea; test: Antifungal activity against Botryotinia fuckeliana ITEM-966 after 24 hr by broth dilution method; format: functional; details: ITEM-966, 24 h
[6] = Toxicity against Artemia salina (brine shrimp) larvae after 24 hr; format: organism-based; details: in vivo
[7] = tested on: Penicillium brevicompactum; test: Antifungal activity against Penicillium brevicompactum Dierckx ITEM-449 after 72 hr by broth dilution method; format: functional; details: Dierckx ITEM-449, 72 h
[8] = tested on: Penicillium brevicompactum; test: Antifungal activity against Penicillium brevicompactum Dierckx ITEM-449 after 48 hr by broth dilution method; format: functional; details: Dierckx ITEM-449, 48 h
[9] = tested on: Penicillium brevicompactum; test: Antifungal activity against Penicillium brevicompactum Dierckx ITEM-449 after 24 hr by broth dilution method; format: functional; details: Dierckx ITEM-449, 24 h
[10] = tested on: Aspergillus parasiticus; test: Antifungal activity against Aspergillus parasiticus Speare ITEM-11 after 72 hr by broth dilution method; format: functional; details: Speare ITEM-11, 72 h
[11] = tested on: Aspergillus parasiticus; test: Antifungal activity against Aspergillus parasiticus Speare ITEM-11 after 48 hr by broth dilution method; format: functional; details: Speare ITEM-11, 48 h
[12] = tested on: Aspergillus parasiticus; test: Antifungal activity against Aspergillus parasiticus Speare ITEM-11 after 24 hr by broth dilution method; format: functional; details: Speare ITEM-11, 24 h

Row | SMILES | growth inhibition (GI) [1] | growth inhibition (GI) [2] | MIC [3] | MIC [4] | MIC [5] | LC50 at 24 h [6] | MIC [7] | MIC [8] | MIC [9] | MIC [10] | MIC [11] | MIC [12]
1 | CCCCCCC(C)CC(C)CC(CO)CC(C)CCC(O)C(C)(C)c1cc(O)c([C@@H]2O[C@H](CO)C[C@H](O)[C@H]2O)c(=O)o1 (stereo partly specified) | inactive | inactive | 50 µg/mL (≈ 81.6 µM) | 50 µg/mL (≈ 81.6 µM) | 50 µg/mL (≈ 81.6 µM) |  |  |  |  |  |  | 
2 | CCCCCCC(C)C/C(C)=C\C(CO)CC(C)CCC(O)C(C)(C)c1cc(O)c([C@@H]2O[C@H](CO)C[C@H](O)[C@H]2O)c(=O)o1 (stereo partly specified) | inactive | inactive | 50 µg/mL (≈ 81.9 µM) | 50 µg/mL (≈ 81.9 µM) | 50 µg/mL (≈ 81.9 µM) |  |  |  |  |  |  | 
3 | CCCCCCC(C)C/C(C)=C\C(/C=C(C)/C=C/C(O)C(C)(C)c1cc(OC)c([C@@H]2O[C@H](CO)C[C@H](O)[C@H]2O)c(=O)o1)CO (stereo partly specified) | inactive | inactive | 50 µg/mL (≈ 80.5 µM) | 50 µg/mL (≈ 80.5 µM) | 25 µg/mL (≈ 40.3 µM) |  |  |  |  |  |  | 
4 | CCCCCCC(C)C/C(C)=C\C(/C=C(C)/C=C/C(OC(C)=O)C(C)(C)c1cc(=O)c([C@@H]2O[C@H](COC(C)=O)C[C@H](OC(C)=O)[C@H]2OC(C)=O)c(OC)o1)COC(C)=O (stereo partly specified) | inactive | inactive |  |  |  | 51.9 µM |  |  |  |  |  | 
5 | CCCCCCC(C)C/C(C)=C\C(/C=C(C)/C=C/C(OC(C)=O)C(C)(C)c1cc(OC)c([C@@H]2O[C@H](COC(C)=O)C[C@H](OC(C)=O)[C@H]2OC(C)=O)c(=O)o1)COC(C)=O (stereo partly specified) | inactive | inactive |  |  |  | 46.1 µM |  |  |  |  |  | 
6 | CCCCCCC(C)C/C(C)=C\C(C)/C=C(C)/C=C/C(OC(C)=O)C(C)(C)c1cc(OC(C)=O)c([C@@H]2O[C@H](COC(C)=O)C[C@H](OC(C)=O)[C@H]2OC(C)=O)c(=O)o1 (stereo partly specified) | inactive | inactive |  |  |  | 39.7 µM |  |  |  |  |  | 
7 | CCCCCCC(C)C/C(C)=C\C(/C=C(C)/C=C/C(OC(C)=O)C(C)(C)c1cc(OC(C)=O)c([C@@H]2O[C@H](COC(C)=O)C[C@H](OC(C)=O)[C@H]2OC(C)=O)c(=O)o1)COC(C)=O (stereo partly specified) | inactive | inactive |  |  |  | 85.6 µM |  |  |  |  |  | 
8 | CCCCCCC(C)C/C(C)=C\C(/C=C(C)/C=C/C(O)C(C)(C)c1cc(O)c(CCO)c(=O)o1)CO (stereo unspecified) | inactive | inactive |  |  |  |  |  |  |  |  |  | 
9 | Nc1c(Cl)cc([N+](=O)[O-])cc1Cl [ALLISAN] |  |  | 6.25 µg/mL (≈ 30.2 µM) | 6.25 µg/mL (≈ 30.2 µM) | 3.12 µg/mL (≈ 15.1 µM) |  | > 25 µg/mL | 25 µg/mL (≈ 121 µM) | 12.5 µg/mL (≈ 60.4 µM) | > 25 µg/mL | > 25 µg/mL | > 25 µg/mL
10 | CCCCNC(=O)n1c(NC(=O)OC)nc2ccccc21 [BENOMYL] |  |  | 0.19 µg/mL (≈ 0.654 µM) | 0.19 µg/mL (≈ 0.654 µM) | 0.19 µg/mL (≈ 0.654 µM) |  | > 25 µg/mL | > 25 µg/mL | > 25 µg/mL | > 25 µg/mL | > 25 µg/mL | > 25 µg/mL
11 | CCCCCCC(C)C/C(C)=C\C(C)/C=C(C)/C=C/C(O)C(C)(C)c1cc(O)c([C@@H]2O[C@H](CO)C[C@H](O)[C@H]2O)c(=O)o1 (stereo partly specified) [DEOXYNEOFUSAPYRONE] | inactive | inactive | 1.56 µg/mL (≈ 2.64 µM) | 1.56 µg/mL (≈ 2.64 µM) | 0.78 µg/mL (≈ 1.32 µM) | 37.1 µM | 1.56 µg/mL (≈ 2.64 µM) | 1.56 µg/mL (≈ 2.64 µM) | 0.78 µg/mL (≈ 1.32 µM) | 0.78 µg/mL (≈ 1.32 µM) | 0.78 µg/mL (≈ 1.32 µM) | 0.78 µg/mL (≈ 1.32 µM)
12 | CCCCCCC(C)C/C(C)=C\C(/C=C(C)/C=C/C(O)C(C)(C)c1cc(O)c([C@@H]2O[C@H](CO)C[C@H](O)[C@H]2O)c(=O)o1)CO (stereo partly specified) [Fusapyrone] | inactive | inactive | 6.25 µg/mL (≈ 10.3 µM) | 3.12 µg/mL (≈ 5.14 µM) | 1.56 µg/mL (≈ 2.57 µM) | > 200 µM | 6.25 µg/mL (≈ 10.3 µM) | 3.12 µg/mL (≈ 5.14 µM) | 0.78 µg/mL (≈ 1.29 µM) | 12.5 µg/mL (≈ 20.6 µM) | 6.25 µg/mL (≈ 10.3 µM) | 6.25 µg/mL (≈ 10.3 µM)

Reference: ChEMBL document CHEMBL3044782, “Structure-activity relationships of derivatives of fusapyrone, an antifungal metabolite of Fusarium semitectum” (J Agric Food Chem, 2004)
